Data reported in patent US20080200475A1 (Pfizer Inc., priority 2005, published 2008).
Where “and” joins values, the source holds several entries; their conditions need not be identical. Equal values may be shown once.

Target: T1, Human P2Y12 (Homo sapiens, UniProt Q9H244)
T1 construct: expressed in transfected cells; host or cells: HEK cells (membrane preparation)
Assay: [^33P]-2MeS-ADP Binding to Recombinant Human P2Y12 Membranes (Assay 3)
Conditions: for inhibition at 10 µM / % Inhibition, [^33P]-2MeS-ADP Binding to Recombinant Human P2Y12 Membranes (Assay 3): highest concentration tested 10 μM; for IC50 / Ki: membranes of HEK cells transfected with P2Y12, competition with ^33P 2MeS-ADP, multiple lines = multiple runs
Procedure: 3. Human P2Y12 Recombinant Cell Membrane Binding Assay with ^33P 2MeS-ADP.
The ability of a test compound to bind to the P2Y12 receptor was evaluated in a recombinant cell membrane binding assay. In this competitive binding assay, the test compound competed against a radiolabelled agonist for binding to the P2Y12 receptor, expressed on the cell membrane. Inhibition of binding of the labeled material was measured and correlated to the amount and potency of the test compound. Data from this assay are presented in Table F. This binding assay is a modification of the procedure in Takasaki, J. et. al, Mol. Pharmacol., 2001, Vol. 60, pg. 432.
HEK cells were transfected with the pDONR201P2Y12 vector and cultured in MEM with GlutaMAX I, Earle's salts, 25 mM HEPES (Gibco #42360-032) containing 10% dialyzed FBS (Gibco #26400-044), 100 μM nonessential amino acids (Gibco #11140-050), 1 mM sodium pyruvate (Gibco #11360-070), 0.05% geneticin (Gibco #10131-027), 3 μg/mL blasticidin (Fluka brand from Sigma #15205), and 0.5 μg/mL puromycin (Sigma #P-8833).
Confluent cells were washed once with cold DPBS (Gibco #14190-136). Fresh DPBS was added and the cells were scraped and centrifuged at 500×g for 5 minutes at 4° C. The cell pellets were resuspended in TEE buffer (25 mM Tris, 5 mM EDTA, 5 mM EGTA) containing 1 protease inhibitor cocktail tablet (Roche #1 873 580) per 50 mL (called TEE+Complete) and can be flash frozen at this point.
In one embodiment, frozen cell pellets were used to prepare the membranes. In that embodiment, the frozen cell pellets were thawed on ice. In another embodiment, cell pellets may be used without flash freezing before moving on to the next step.
Cell pellets were resuspended in TEE buffer+Complete and homogenized in a glass dounce for 12 strokes. The cell suspension was centrifuged at 500×g for 5 minutes at 4° C. The supernatant was saved and centrifuged at 20,000×g for 20 minutes at 4° C. This supernatant was discarded and the cell pellet resuspended in TEE buffer+Complete and homogenized in a glass dounce for 12 strokes. This suspension was centrifuged at 20,000×g for 20 minutes at 4° C. and the supernatant discarded. The pellet was resuspended in assay buffer (50 mM Tris, 100 mM NaCl, 1 mM EDTA) containing one protease inhibitor cocktail tablet per 50 mL, and can be flash frozen as 1 mL aliquots at this point.
[…] A 1 mM DMSO intermediate stock was made in a dilution plate and from this the seven dilutions were made to 5× the final concentration in assay buffer containing 0.02% BSA.
To a polypropylene assay plate (Costar #3365) the following were added: a) 30 μL of assay buffer containing one protease inhibitor cocktail tablet per 50 mL; b) 30 μL of 1 nM ^33P 2MeS-ADP made in assay buffer containing 0.02% BSA and 12.5 mg/mL ascorbic acid; 30 μL of cold 1.5 μM 2MeS-ADP for the positive control wells, or assay buffer containing 0.02% BSA and 12.5 mg/mL ascorbic acid for the negative control wells, or 5× drug dilution; and 60 μL of 1 ug/well membranes.
The plates were incubated at room temperature for 1 hour. The reaction was stopped using a cell harvester to transfer the reaction mixture onto GF/B UniFilter plates (Perkin Elmer #6005177), and washed three times with wash buffer (50 mM Tris), filtering between each wash. The filter plates were dried for approximately 20 minutes in an oven at 50° C. Back seals were adhered to the filter plates and 25 uL of Microscint 20 scintillation fluid (Perkin Elmer #6013621) were added. The filter plates were sealed, shaken for 30 minutes, and counted on a Top Count. Data were analyzed using a four-parameter curve fit with a fixed minimum and maximum experimentally defined as the average positive and negative controls on each plate, and with a hill slope equal to one. […]

T1 sequence (Q9H244 whole entry): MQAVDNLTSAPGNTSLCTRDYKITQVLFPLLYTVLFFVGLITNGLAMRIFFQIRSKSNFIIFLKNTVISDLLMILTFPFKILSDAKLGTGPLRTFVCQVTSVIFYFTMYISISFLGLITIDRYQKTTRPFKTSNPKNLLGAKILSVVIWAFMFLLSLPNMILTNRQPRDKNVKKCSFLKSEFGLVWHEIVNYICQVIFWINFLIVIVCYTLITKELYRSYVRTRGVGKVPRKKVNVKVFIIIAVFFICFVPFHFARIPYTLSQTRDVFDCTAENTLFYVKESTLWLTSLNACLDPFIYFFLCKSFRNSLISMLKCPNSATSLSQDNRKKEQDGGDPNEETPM

Row | inhibition at 10 µM [%] | IC50 | Ki | % Inhibition, [^33P]-2MeS-ADP Binding to Recombinant Human P2Y12 Membranes (Assay 3) | Compound
1 | 75.6 | 0.403 µM | 0.227 µM |  | CCc1cc2c(N3CCN(C(=O)c4ccc(-c5ccccc5)cc4)CC3)nc(NC(=O)[C@H]3CCCN3)nc2s1 [Example 40, (R)-Pyrrolidine-2-carboxylic acid{4-[4-(biphenyl-4-carbonyl)piperazin-1-yl]-6-ethylthieno[2,3-d]pyrimidin-2-yl}amide]
2 | 85 | 0.156 µM | 0.085 µM |  | CCc1cc2c(N3CCN(C(=O)c4ccc(-c5ccccc5)cc4)CC3)nc(NC(=O)CN)nc2s1 [Example 41, 2-Amino-N-{4-[4-(biphenyl-4-carbonyl)piperazin-1-yl]-6-ethylthieno[2,3-d]pyrimidin-2-yl}acetamide]
3 |  | 6.88 µM and 4.16 µM | 3.82 µM and 2.3 µM | 46.8% and 71.7% | CCOC(=O)CCNC(=O)Nc1nc(N2CCN(C(=O)CC(F)(F)F)CC2)c2cc(CC)sc2n1 [Example 46, Ethyl N-[({6-ethyl-4-[4-(3,3,3-trifluoropropanoyl)piperazin-1-yl]thieno[2,3-d]pyrimidin-2-yl}amino)carbonyl]-beta-alaninate]
4 | 88.9 | 0.449 µM and 0.308 µM and 0.254 µM | 0.234 µM and 0.168 µM and 0.14 µM | 94.4% and 92% | CCc1cc2c(N3CCN(C(=O)CC(F)(F)F)CC3)nc(NC(=O)NCCC(=O)O)nc2s1 [Example 49, N-[({6-Ethyl-4-[4-(3,3,3-trifluoropropanoyl)piperazin-1-yl]thieno[2,3-d]pyrimidin-2-yl}amino)carbonyl]-beta-alanine]
